The EC50 is the concentration needed to bring the measured effect to its halfway point. What is called CC50 is the concentration that lowers cell viability or growth by half. A lower CC50 goes with greater toxicity to the cells.

Counter-ions that a name gives are not always drawn. Like-named read-outs stand apart in the source and are kept apart here.

For one data set, the system named is HBV. As to the kind of experiment: HBV inhibitory activity in HepG2.2.15 cells (HBV DNA in culture medium by q-PCR). Format: cell-based. An outline of the steps: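 HepG2.2.15 cells (40,000/well, 2% FBS) treated 6 days with compounds, medium refreshed once; 8 points, 3-fold dilution, top 10 uM. Secreted HBV DNA in medium extracted and quantified by q-PCR; EC50 calculated from dose-response.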

A short description of data set [1]: Cytotoxicity determination in HepG2.2.15 cells (CCK-8). In kind it is cell-based. As to conditions: human, HepG2.2.15 cells, 5,000 cells/well, 6 days of compound treatment, CCK-8 absorbance 450 nm, highest concentration 100 uM. An outline of the steps: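 HepG2.2.15 cells, 5,000/well in 2% FBS medium, treated 6 days with compound (medium refreshed midway), 8-point 3-fold dilutions from 100 uM top. Viability read by CCK-8, 2.5 h at 37° C, absorbance 450 nm with 630 nm reference; CC50 from curve fitting.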

Setting [2] is: HepG2.2.15 cells, 40,000 cells/well, 6 days of compound treatment, HBV DNA in culture medium by q-PCR, highest concentration 10 uM, read-out: EC50.
Where [3] appears, read: Hepatitis B virus, HepG2.2.15, 144 h, HepG2.2.15 cells, 40,000 cells/well, 6 days of compound treatment, HBV DNA in culture medium by q-PCR, highest concentration 10 uM, read-out: EC50.

For the molecule `CCOC(=O)C1=C(C2CCc3nn(CCC(=O)O)cc3C2)NC(c2nccs2)=NC1c1cccc(F)c1Cl` (single isomer, unassigned) [Compound 40b, 3-(5-(6-(2-Chloro-3-fluorophenyl)-5-(ethoxycarbonyl)-2-(thiazol-2-yl)-3,6-dihydropyrimidin-4-yl)-4,5,6,7-tetrahydro-2H-indazol-2-yl)propanoic acid], the EC50 in the data set on HBV (setting [2]) came to 0.48 µM. In data set [1] (HepG2.2.15 cells), this molecule yielded a CC50 at 6 days of 21.5 µM.

For the molecule `CCOC(=O)C1=C(C2CCc3nn(CCC(=O)O)cc3C2)NC(c2nccs2)=NC1c1ccc(F)cc1C` (single isomer, unassigned) [Compound 38a, 3-(5-(5-(Ethoxycarbonyl)-6-(4-fluoro-2-methylphenyl)-2-(thiazol-2-yl)-3,6-dihydropyrimidin-4-yl)-4,5,6,7-tetrahydro-2H-indazol-2-yl)propanoic acid], in the data set with HBV (setting [2]), the EC50 came out at 0.0145 µM. In data set [1] (HepG2.2.15 cells), this molecule had a CC50 at 6 days of 28.2 µM.

Regarding `CCOC(=O)C1=C(C2CCc3nc(CCC(=O)O)oc3C2)NC(c2nccs2)=NC1c1ccc(F)c(F)c1Cl` (single isomer, unassigned) [Compound 58b, 3-(6-(6-(2-Chloro-3,4-difluorophenyl)-5-(ethoxycarbonyl)-2-(thiazol-2-yl)-3,6-dihydropyrimidin-4-yl)-4,5,6,7-tetrahydrobenzo[d]oxazol-2-yl)propanoic acid], the EC50 in the data set with HBV (setting [3]) stood at 0.0062 µM. Besides, in data set [1] (HepG2.2.15 cells), the CC50 at 6 days was found to be 9.8 µM.

As for `CCOC(=O)C1=C(C2CCc3c(cn(CCC(=O)O)c3C#N)C2)NC(c2nccs2)=NC1c1ccc(F)c(F)c1Cl` (stereo not shown) [Compound 62, 3-(5-(6-(2-Chloro-3,4-difluorophenyl)-5-(ethoxycarbonyl)-2-(thiazol-2-yl)-3,6-dihydropyrimidin-4-yl)-1-cyano-4,5,6,7-tetrahydro-2H-isoindol-2-yl)propanoic acid], in the data set with HBV (setting [3]), the EC50 came out at 0.0069 µM. In data set [1] (HepG2.2.15 cells), the midpoint of cytotoxicity, the CC50 at 6 days, lay at 5 µM.

In the case of `COC(=O)C1=C(C2CCc3[nH]ncc3C2)NC(c2nccs2)=NC1c1ccc(F)c(F)c1Cl` (single isomer, unassigned) [Compound 65a, Methyl 4-(2-chloro-3,4-difluorophenyl)-6-(4,5,6,7-tetrahydro-1H-indazol-5-yl)-2-(thiazol-2-yl)-1,4-dihydropyrimidine-5-carboxylate], in the data set on HBV (setting [2]), the EC50 was 0.0563 µM. In data set [1] (HepG2.2.15 cells), this molecule yielded a CC50 at 6 days of 11.8 µM.

For the molecule `CCOC(=O)C1=C(C2CCc3nn(C(C)CC(=O)O)cc3C2)NC(c2nccs2)=NC1c1ccc(F)c(F)c1Cl` (single isomer, unassigned) [Compound 51b, 3-(5-(6-(2-chloro-3,4-difluorophenyl)-5-(ethoxycarbonyl)-2-(thiazol-2-yl)-3,6-dihydropyrimidin-4-yl)-4,5,6,7-tetrahydro-2H-indazol-2-yl)butanoic acid], in the data set with HBV (setting [2]), the EC50 amounted to 0.0117 µM. The same molecule registered a CC50 at 6 days in data set [1] (HepG2.2.15 cells) of 7.7 µM.

For `CCOC(=O)C1=C(C2CCc3nn(CCC(=O)O)cc3C2)NC(c2nccs2)=NC1c1ccc(F)c(F)c1Br` (single isomer, unassigned) [Compound 36d, 3-(5-(6-(2-Bromo-3,4-difluorophenyl)-5-(ethoxycarbonyl)-2-(thiazol-2-yl)-3,6-dihydropyrimidin-4-yl)-4,5,6,7-tetrahydro-2H-indazol-2-yl)propanoic acid], the EC50 with HBV (setting [3]) is 0.0879 µM. In data set [1] (HepG2.2.15 cells), it took 9.7 µM to reach half-maximal cytotoxicity (CC50 at 6 days).

Regarding `CCOC(=O)C1=C(C2CCc3nn(CCC(=O)O)cc3C2)NC(c2nccs2)=NC1c1ccc(F)c(F)c1C` (single isomer, unassigned) [Compound 35b, 3-(5-(6-(3,4-Difluoro-2-methylphenyl)-5-(ethoxycarbonyl)-2-(thiazol-2-yl)-3,6-dihydropyrimidin-4-yl)-4,5,6,7-tetrahydro-2H-indazol-2-yl)propanoic acid], the EC50 with HBV (setting [2]) worked out at 0.0958 µM. In data set [1] (HepG2.2.15 cells), this molecule yielded a CC50 at 6 days of 20.7 µM.

With `COC(=O)C1=C(C2CCc3nn(CCCC(=O)O)cc3C2)NC(c2nccs2)=NC1c1ccc(F)c(F)c1Cl` (single isomer, unassigned) [Compound 74B, 4-(5-(6-(2-chloro-3,4-difluorophenyl)-5-(methoxycarbonyl)-2-(thiazol-2-yl)-3,6-dihydropyrimidin-4-yl)-4,5,6,7-tetrahydro-2H-indazol-2-yl)butanoic acid], the EC50 in the data set on HBV (setting [2]) worked out at 0.0661 µM. The CC50 at 6 days in data set [1] (HepG2.2.15 cells) turned out to be 19.6 µM.

In the case of `CCOC(=O)C1=C(C2CCc3nn(CCC(=O)O)cc3C2)NC(c2nccs2)=NC1c1ccc(F)cc1Br` (single isomer, unassigned) [Compound 39b, 3-(5-(6-(2-Bromo-4-fluorophenyl)-5-(ethoxycarbonyl)-2-(thiazol-2-yl)-3,6-dihydropyrimidin-4-yl)-4,5,6,7-tetrahydro-2H-indazol-2-yl)propanoic acid], in the data set with HBV (setting [2]), the EC50 is 0.165 µM. In addition, in data set [1] (HepG2.2.15 cells), the 50% cytotoxic concentration (CC50) at 6 days is 13.1 µM.

`COC(=O)C1=C(C2CCc3nn([C@H]4C[C@@H](C(=O)O)C4)cc3C2)NC(c2nccs2)=NC1c1ccc(F)c(F)c1Cl` (stereo partly drawn) [Compound 96d, (cis)-3-(5-(6-(2-Chloro-3,4-difluorophenyl)-5-(methoxycarbonyl)-2-(thiazol-2-yl)-3,6-dihydropyrimidin-4-yl)-4,5,6,7-tetrahydro-2H-indazol-2-yl)cyclobutanecarboxylic acid]: in the data set on HBV (setting [3]), the EC50 was 0.0247 µM. For the same molecule, half-maximal cytotoxicity in data set [1] (HepG2.2.15 cells) (CC50 at 6 days) was put at 19.3 µM.

`CCOC(=O)C1=C(C2CCc3nn(CCC(C)(C)C(=O)O)cc3C2)NC(c2nccs2)=NC1c1ccc(F)c(F)c1Cl` (stereo not shown) [Compound 88d, 4-(5-(6-(2-Chloro-3,4-difluorophenyl)-5-(ethoxycarbonyl)-2-(thiazol-2-yl)-3,6-dihydropyrimidin-4-yl)-4,5,6,7-tetrahydro-2H-indazol-2-yl)-2,2-dimethylbutanoic acid]: in the data set with HBV (setting [3]), the EC50 was determined as 0.0208 µM. For the same molecule, the CC50 at 6 days in data set [1] (HepG2.2.15 cells) turned out to be 9.8 µM.

Take `CCOC(=O)C1=C(C2CCc3nn(CCCC(=O)O)cc3C2)NC(c2nccs2)=NC1c1ccc(F)c(F)c1Cl` (single isomer, unassigned) [Compound 50b, 4-(5-(6-(2-Chloro-3,4-difluorophenyl)-5-(ethoxycarbonyl)-2-(thiazol-2-yl)-3,6-dihydropyrimidin-4-yl)-4,5,6,7-tetrahydro-2H-indazol-2-yl)butanoic acid]: the EC50 in the data set with HBV (setting [2]) turned out to be 0.116 µM. The molecule also gave a CC50 at 6 days in data set [1] (HepG2.2.15 cells) of 12.6 µM.

`CCOC(=O)C1=C(C2CCc3nn([C@H]4C[C@H](C(=O)O)C4)cc3C2)NC(c2nccs2)=NC1c1ccc(F)c(F)c1Cl` (stereo partly drawn) [Compound 54, (trans)-3-(5-(6-(2-Chloro-3,4-difluorophenyl)-5-(ethoxycarbonyl)-2-(thiazol-2-yl)-3,6-dihydropyrimidin-4-yl)-4,5,6,7-tetrahydro-2H-indazol-2-yl)cyclobutanecarboxylic acid]: in the data set with HBV (setting [3]), the EC50 worked out at 0.0198 µM. In addition, the CC50 at 6 days in data set [1] (HepG2.2.15 cells) amounted to 16 µM.

With `CCOC(=O)C1=C(C2CCc3nn(CCC(=O)O)cc3C2)NC(c2nccs2)=NC1c1ccc(F)c(F)c1Cl` (single isomer, unassigned) [Compound 34a, 3-(5-(6-(2-chloro-3,4-difluorophenyl)-5-(ethoxycarbonyl)-2-(thiazol-2-yl)-3,6-dihydropyrimidin-4-yl)-4,5,6,7-tetrahydro-2H-indazol-2-yl)propanoic acid], the EC50 in the data set on HBV (setting [2]) turned out to be 0.385 µM. In addition, in data set [1] (HepG2.2.15 cells), the 50% cytotoxic concentration (CC50) at 6 days is 27.5 µM.

`CCOC(=O)C1=C(C2CCc3nn(CC(C)(C)C(=O)O)cc3C2)NC(c2nccs2)=NC1c1ccc(F)c(F)c1C` (stereo not shown) [Compound 92c, 3-(5-(6-(3,4-difluoro-2-methylphenyl)-5-(ethoxycarbonyl)-2-(thiazol-2-yl)-3,6-dihydropyrimidin-4-yl)-4,5,6,7-tetrahydro-2H-indazol-2-yl)-2,2-dimethylpropanoic acid]: the EC50 with HBV (setting [3]) turned out to be 0.0079 µM. In data set [1] (HepG2.2.15 cells), this molecule yielded a CC50 at 6 days of 9.3 µM.

For the molecule `CCOC(=O)C1=C(C2CCc3nn(CC(C)(C)C(=O)O)cc3C2)NC(c2ncc(F)cc2F)=NC1c1ccc(F)c(F)c1Cl` (stereo not shown) [Compound 94c, 3-(5-(6-(2-Chloro-3,4-difluorophenyl)-2-(3,5-difluoropyridin-2-yl)-5-(ethoxycarbonyl)-3,6-dihydropyrimidin-4-yl)-4,5,6,7-tetrahydro-2H-indazol-2-yl)-2,2-dimethylpropanoic acid hydrochloride], the EC50 in the data set with HBV (Hepatitis B virus, HepG2.2.15, 144 h) was determined as 0.0071 µM. In data set [1], this molecule yielded a CC50 at 6 days of 16.5 µM.

In the case of `COC(=O)C1=C(C2CCc3nn(CCC(=O)O)cc3C2)NC(c2nccs2)=NC1c1ccc(F)c(F)c1Cl` (single isomer, unassigned) [Compound 70b, 3-(-5-(6-(2-chloro-3,4-difluorophenyl)-5-(methoxycarbonyl)-2-(thiazol-2-yl)-3,6-dihydropyrimidin-4-yl)-4,5,6,7-tetrahydro-2H-indazol-2-yl)propanoic acid], the EC50 in the data set with HBV (setting [2]) amounted to 0.083 µM. Also, the CC50 at 6 days in data set [1] (HepG2.2.15 cells) came to 22.7 µM.

With `COC(=O)C1=C(C2CCc3nn(C(C)(C)CC(=O)O)cc3C2)NC(c2nccs2)=NC1c1ccc(F)c(F)c1Cl` (single isomer, unassigned) [Compound 82b], the EC50 with HBV (setting [2]) was 0.0861 µM. Also, the CC50 at 6 days in data set [1] (HepG2.2.15 cells) is 15.9 µM.

Take `COC(=O)C1=C(C2CCc3nc(CCC(=O)O)ncc3C2)NC(c2nccs2)=NC1c1ccc(F)c(F)c1Cl` (stereo not shown) [Compound 64, 3-(6-(6-(2-Chloro-3,4-difluorophenyl)-5-(methoxycarbonyl)-2-(thiazol-2-yl)-3,6-dihydropyrimidin-4-yl)-5,6,7,8-tetrahydroquinazolin-2-yl)propanoic acid]: in the data set with HBV (setting [3]), the EC50 amounted to 0.07 µM. The molecule further yielded a CC50 at 6 days in data set [1] (HepG2.2.15 cells) of 26.4 µM.

The values are drawn from patent publication US20210220356A1, “DIHYDROPYRIMIDINE DERIVATIVES AND USES THEREOF IN THE TREATMENT OF HBV INFECTION OR OF HBV-INDUCED DISEASES” (Janssen Sciences Ireland Unlimited Company, priority 2018, published 2021).
